Measured values published in patent US20230391748A1, “BICYCLIC INHIBITORS OF IRAK” (priority 2022, published 2023).
pIC50: −log10 of the molar value.

How the values were obtained:
[1] = tested on: TNF-α in human PBMCs; experiment: R848-induced TNF-α in human PBMCs Assay; assay type: cell-based; details: Homo sapiens, PBMC, 4 h, read-out: TNFα (PBMC, R848) (IC50, μM)
Procedure, shortened: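 Human PBMCs at 200K/well were pretreated with compound, then R848-stimulated for 4 h at 37 °C, 5% CO2. Supernatant TNF-α quantified by chemiluminescent ELISA; EC50 from curve fitting.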

[2] = tested on: TNF-α in Human Primary Monocyte-Derived Dendritic Cells; experiment: Gardiquimod-Induced TNF-α in Human Primary Monocyte-Derived Dendritic Cells; assay type: cell-based; details: Dendritic cell, IFNγ-primed monocyte-derived dendritic cells, 4 μg/ml Gardiquimod, 6 hours, TNF-α ELISA, read-out: TNFα (DC, GARD) (IC50)
Procedure, shortened: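 Monocytes differentiated 7 days with GM-CSF and IL-4, then primed 24 h with 50 ng/ml IFN-γ. Compound added 1 h before 6 h stimulation with 4 μg/ml Gardiquimod, 0.5% DMSO final. Supernatant TNF-α measured by chemiluminescent ELISA; EC50 from curve fitting.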

[3] = biological target: IRAK4 (Homo sapiens (Human), UniProt Q9NWZ3); experiment: IRAK4 ADP-Glo Assay; assay type: biochemical; details: MBP substrate
IRAK4, sequence (Q9NWZ3 whole entry): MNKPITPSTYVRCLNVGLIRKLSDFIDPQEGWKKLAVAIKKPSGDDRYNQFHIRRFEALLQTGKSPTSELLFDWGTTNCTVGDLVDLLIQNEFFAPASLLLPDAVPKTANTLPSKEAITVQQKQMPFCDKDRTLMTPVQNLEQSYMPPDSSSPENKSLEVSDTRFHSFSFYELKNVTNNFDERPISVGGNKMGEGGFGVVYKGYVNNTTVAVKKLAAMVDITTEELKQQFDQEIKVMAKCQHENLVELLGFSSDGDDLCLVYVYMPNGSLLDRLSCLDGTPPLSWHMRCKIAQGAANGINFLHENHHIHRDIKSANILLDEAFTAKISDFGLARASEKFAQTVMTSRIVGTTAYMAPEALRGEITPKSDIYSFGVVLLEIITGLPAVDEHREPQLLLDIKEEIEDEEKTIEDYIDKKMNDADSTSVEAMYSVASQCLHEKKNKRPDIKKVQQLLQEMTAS
Procedure, shortened: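 Human IRAK4 kinase reaction with MBP substrate plus ATP in Tris-HCl/MgCl2/BSA/DTT buffer, pH 7.4, run 60 min at room temperature or 30 min at 30 °C. ADP formed was measured by ADP-Glo luminescence after ATP depletion (40 min) and detection reagent (30 min).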

[4] = tested on: IL23p19 in THP-1 Cells; experiment: LPS Induced IL23p19 in THP-1 Cells (with IFNγ Primed) Assay; assay type: cell-based; details: Homo sapiens, THP-1, 18 h, read-out: IL23 (THP, LPS) (IC50, μM)
Procedure, shortened: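 THP-1 cells (50K/well) primed with IFNγ (50 ng/mL) about 18 h, then given compound and stimulated with LPS for 18 h at 37 °C. Secreted IL-23p19 measured by sandwich ELISA with chemiluminescent read-out, giving EC50. Cell Titer Glo used on the remaining cells for toxicity.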

Row | Compound | IC50 [1] | pIC50 [2] | pIC50 [3] | IC50 [4]
1 | CCO[C@H]1CC[C@@H](C#Cc2cnc(OC[C@@H]3CC(F)(F)C(=O)N3)c3cc(OC(C)C)c(C(N)=O)cc23)CC1 [Compound I-59, 1-(((S)-4,4-difluoro-5-oxopyrrolidin-2-yl)methoxy)-4-((cis-4-ethoxycyclohexyl)ethynyl)-7-isopropoxyisoquinoline-6-carboxamide] | 0.0472 µM | 7.49 | 8.41 | 0.0466 µM
2 | CC(C)Oc1cc2c(OC[C@@H]3CC(F)(F)C(=O)N3)ncc(C#C[C@H]3CC[C@](C)(O)CC3)c2cc1C(N)=O [Compound I-60, 1-(((S)-4,4-difluoro-5-oxopyrrolidin-2-yl)methoxy)-4-(((1r,4S)-4-hydroxy-4-methylcyclohexyl)ethynyl)-7-isopropoxyisoquinoline-6-carboxamide] | 0.0778 µM | 7.67 | 8.03 | 0.0246 µM
3 | CC(C)Oc1cc2c(OC[C@@H]3CC(F)(F)C(=O)N3)ncc(C#C[C@H]3CC[C@@](C)(O)CC3)c2cc1C(N)=O [Compound I-61, 1-(((S)-4,4-difluoro-5-oxopyrrolidin-2-yl)methoxy)-4-(((1s,4R)-4-hydroxy-4-methylcyclohexyl)ethynyl)-7-isopropoxyisoquinoline-6-carboxamide] | 0.0807 µM | 7.89 | 8.06 | 0.102 µM
4 | CC(C)Oc1cc2c(OC[C@@H]3CC(F)(F)C(=O)N3)ncc(C#CC3CN(C(=O)OC(C)(C)C)C3)c2cc1C(N)=O [Compound I-62, tert-butyl (S)-3-((6-carbamoyl-1-((4,4-difluoro-5-oxopyrrolidin-2-yl)methoxy)-7-isopropoxyisoquinolin-4-yl)ethynyl)azetidine-1-carboxylate] | 0.001 µM | 8.68 | 7.71 | 0.0219 µM
5 | CC(C)Oc1cc2c(OC[C@@H]3CC(F)(F)C(=O)N3)ncc(C#CC3CNC3)c2cc1C(N)=O [Compound I-63, (S)-4-(azetidin-3-ylethynyl)-1-((4,4-difluoro-5-oxopyrrolidin-2-yl)methoxy)-7-isopropoxyisoquinoline-6-carboxamide] | 1.21 µM | 6.28 | 8.55 | 5.9 µM
6 | COC1(OC)CC(C#Cc2cnc(OC[C@@H]3CC(F)(F)C(=O)N3)c3cc(OC(C)C)c(C(N)=O)cc23)C1 [Compound I-65, (S)-1-((4,4-difluoro-5-oxopyrrolidin-2-yl)methoxy)-4-((3,3-dimethoxycyclobutyl)ethynyl)-7-isopropoxyisoquinoline-6-carboxamide] | 0.0065 µM | 7.54 | 8.06 | 0.0465 µM
7 | CC(C)Oc1cc2c(OC[C@@H]3CC(F)(F)C(=O)N3)ncc(-c3cnn(C4CC4)c3)c2cc1C(N)=O [Compound I-67, (S)-4-(1-cyclopropyl-1H-pyrazol-4-yl)-1-((4,4-difluoro-5-oxopyrrolidin-2-yl)methoxy)-7isopropoxyisoquinoline-6-carboxamide] | 0.0472 µM | 6.23 | 8.20 | 0.608 µM
8 | CC(C)Oc1cc2c(OC[C@@H]3CC(F)(F)C(=O)N3)ncc(-c3cnn(C4CCC4)c3)c2cc1C(N)=O [Compound I-68, (S)-4-(1-cyclobutyl-1H-pyrazol-4-yl)-1-((4,4-difluoro-5-oxopyrrolidin-2-yl)methoxy)-7-isopropoxyisoquinoline-6-carboxamide] | 0.406 µM | 6.26 | 8.02 | 0.286 µM
9 | CC(C)Oc1cc2c(OC[C@@H]3CC(F)(F)C(=O)N3)ncc(-c3cnn(C4CCCC4)c3)c2cc1C(N)=O [Compound I-69, (S)-4-(1-cyclopentyl-1H-pyrazol-4-yl)-1-((4,4-difluoro-5-oxopyrrolidin-2-yl)methoxy)-7-isopropoxyisoquinoline-6-carboxamide] | 0.241 µM | 7.28 | 8.29 | 0.391 µM
10 | CC(C)Oc1cc2c(OC[C@@H]3CC(F)(F)C(=O)N3)ncc(-c3cnn(C4CCOCC4)c3)c2cc1C(N)=O [Compound I-70, (S)-1-((4,4-difluoro-5-oxopyrrolidin-2-yl)methoxy)-7-isopropoxy-4-(1-(tetrahydro-2H-pyran-4-yl)-1H-pyrazol-4-yl)isoquinoline-6-carboxamide] | 0.292 µM | 7.08 | 8.17 | 2.26 µM
11 | CC(C)Oc1cc2c(OC[C@@H]3CC(F)(F)C(=O)N3)ncc(-c3cnn(CC4CCOCC4)c3)c2cc1C(N)=O [Compound I-71, (S)-1-((4,4-difluoro-5-oxopyrrolidin-2-yl)methoxy)-7-isopropoxy-4-(1-((tetrahydro-2H-pyran-4-yl)methyl)-1H-pyrazol-4-yl)isoquinoline-6-carboxamide] | 0.174 µM | 6.83 | 8.19 | 0.848 µM
12 | CC(C)Oc1cc2c(OC[C@@H]3CC(F)(F)C(=O)N3)ncc(-c3cnn(CCC4CCOCC4)c3)c2cc1C(N)=O [Compound I-72, (S)-1-((4,4-difluoro-5-oxopyrrolidin-2-yl)methoxy)-7-isopropoxy-4-(1-(2-(tetrahydro-2H-pyran-4-yl)ethyl)-1H-pyrazol-4-yl)isoquinoline-6-carboxamide] | 0.183 µM | 6.56 | 8.15 | 0.872 µM
13 | CC(C)Oc1cc2c(OC[C@@H]3CC(F)(F)C(=O)N3)ncc(-c3cnn([C@H]4C[C@@H](N(C)C)C4)c3)c2cc1C(N)=O [Compound I-73, 1-(((S)-4,4-difluoro-5-oxopyrrolidin-2-yl)methoxy)-4-(1-(cis-3-(dimethylamino)cyclobutyl)-1H-pyrazol-4-yl)-7-isopropoxyisoquinoline-6-carboxamide] | 0.203 µM | 6.59 | 8.52 | 1.04 µM
14 | CC(C)Oc1cc2c(OC[C@@H]3CC(F)(F)C(=O)N3)ncc(-c3cnn(C4CCN(C(=O)OC(C)(C)C)CC4)c3)c2cc1C(N)=O [Compound I-74, tert-butyl (S)-4-(4-(6-carbamoyl-1-((4,4-difluoro-5-oxopyrrolidin-2-yl)methoxy)-7-isopropoxyisoquinolin-4-yl)-1H-pyrazol-1-yl)piperidine-1-carboxylate] | 0.141 µM | 6.31 | 7.95 | 0.395 µM
15 | CC(C)Oc1cc2c(OC[C@@H]3CC(F)(F)C(=O)N3)ncc(-c3cnn(C4CCNCC4)c3)c2cc1C(N)=O [Compound I-75, (S)-1-((4,4-difluoro-5-oxopyrrolidin-2-yl)methoxy)-7-isopropoxy-4-(1-(piperidin-4-yl)-1H-pyrazol-4-yl)isoquinoline-6-carboxamide] | 6.64 µM | 5.34 | 8.40 | 85.4 µM
16 | CC(C)Oc1cc2c(OC[C@@H]3CC(F)(F)C(=O)N3)ncc(-c3cnn(C4CCN(C)CC4)c3)c2cc1C(N)=O [Compound I-76, (S)-1-((4,4-difluoro-5-oxopyrrolidin-2-yl)methoxy)-7-isopropoxy-4-(1-(1-methylpiperidin-4-yl)-1H-pyrazol-4-yl)isoquinoline-6-carboxamide] | 0.375 µM | 6.34 | 8.62 | 1.11 µM
17 | CCO[C@H]1CC[C@H](n2cc(-c3cnc(OC[C@@H]4CC(F)(F)C(=O)N4)c4cc(OC(C)C)c(C(N)=O)cc34)cn2)CC1 [Compound I-77, 1-(((S)-4,4-difluoro-5-oxopyrrolidin-2-yl)methoxy)-4-(1-(trans-4-ethoxycyclohexyl)-1H-pyrazol-4-yl)-7-isopropoxyisoquinoline-6-carboxamide] | 0.12 µM | 6.46 | 8.15 | 0.152 µM
18 | CC(C)Oc1cc2c(OC[C@@H]3CC(F)(F)C(=O)N3)ncc(-c3cnn([C@H]4CC[C@](C)(O)CC4)c3)c2cc1C(N)=O [Compound I-78, 1-(((S)-4,4-difluoro-5-oxopyrrolidin-2-yl)methoxy)-4-(1-((1r,4S)-4-hydroxy-4-methylcyclohexyl)-1H-pyrazol-4-yl)-7-isopropoxyisoquinoline-6-carboxamide] | 0.234 µM | 6.19 | 8.44 | 0.162 µM
19 | CC(C)Oc1cc2c(O[C@@H]3CCCNC3)ncc(C#CC3CCOCC3)c2cc1C(N)=O [Compound I-86, (R)-7-isopropoxy-1-(piperidin-3-yloxy)-4-((tetrahydro-2H-pyran-4-yl)ethynyl)isoquinoline-6-carboxamide] | 1.74 µM | 5.99 | 7.04 | 5.29 µM
20 | CC(C)Oc1cc2c(O[C@@H]3CCCNC3)ncc(C#CCC3CCOCC3)c2cc1C(N)=O [Compound I-87, (R)-7-isopropoxy-1-(piperidin-3-yloxy)-4-(3-(tetrahydro-2H-pyran-4-yl)prop-1-yn-1-yl)isoquinoline-6-carboxamide] | 1.97 µM | 6.11 | 7.28 | 5.02 µM
